Experimental data published in US20260232633A1, “Compositions and Uses Thereof” (Purposeful IKE, priority 2020, published 2026).
Values joined by “and” are separate entries in the source; they are usually repeats but may differ in a detail not shown here. Equal values may be shown once.

Tests used:
[1] = system: FMR1 mice; assay: Behavioral experiments overall (FXS phenotypes); format: in vivo
Protocol: (§1) Fmr1 KO mice backcrossed to the FVB strain and WT littermates were used during experiments. TransnetXY Automated Genotyping (www.transnetyx.com/). TRANSNETYX, INC., 8110 Cordova Rd. Suite 119, Cordova, TN 38016, USA was used for genotyping. The animals were pretreated for 14 days. The active ingredients of Sumatriptan and Ergoloid were in a water carrier, whereas oxitriptan was in a methanol carrier.
(§2) Behavior testing was conducted at 2 weeks. The behavioral tests were as follows: 1. Hyperactivity: Open field; 2. Stereotypy: Self-grooming; 3. Sociability: Three chamber partition test; 4. Memory and Learning: Novel Object Recognition; 5. Anxiety: hyponeophagia; and 6. Test of daily living: marble burying
(§3) The treatment of the mice with OX (Oxitriptan), SU (Sumatriptan), ER (Ergoloid mesylates, also referred to as ergoloid herein) were according to the matrix shown below in Table 1.
The experimental procedures described above for Example 1 were used in the following tests, as well as the addition of two further behaviour tests as described below. An SSRI (selective serotonin re-uptake inhibitor) was co-dosed with the ergoloid mesylates and oxitriptan to assess the effect of the ergoloid mesylates and oxitriptan treatment on a subject already receiving SSRI treatment. […]

[2] = Jacobsen J P R 2016; cited from earlier work
[3] = system: Fmr1 KO mice; assay: Open field test (hyperactivity); format: in vivo
Protocol: as §1
(§4) The mice were housed in plastic cages (35×30×12 cm), 5 in each. The room temperature (21±2° C.),relative humidity (55±5%), a 12-h light-dark cycle (lights on 7 a.m.-7 p.m.) and air exchange (16 times per h) were automatically controlled. The animals had free access to commercial food pellets and water. Testing was conducted during the light phase. Ten mice per treatment group were used for the AGS experiments. Experiments were conducted in line with the requirements of the UK Animals (Scientific Procedures) Act, 1986.
All experiments were conducted with the experimenter blind to genotype and drug treatment. Separate investigators prepared and coded dosing solutions, allocated the mice to the study treatment groups, dosed the animals, and collected the Audiogenic Seizure data. […]
For hyperactivity, the open field test (OFT) is a common measure of exploratory behavior and general activity in both mice and rats, where both the quality and quantity of the activity can be measured. […]

[4] = system: Fmr1 KO mice; assay: Sociability: three chamber partition test; format: in vivo; design: unit not given here; conditions: for Sociability: Mean Diff., F_KO-V vs. F_ treated KO (Dunnett) / Sociability: Mean Diff., F_KO-V vs. N_ treated KO (Dunnett): against F_KO-V; for Sociability: Mean Diff., F_KO-V vs. F_ treated KO (Dunnett): Sumatriptan 20, Oxitriptan 40, Ergoloid 4, Ergoloid 2 + Oxitriptan 40 mg/kg; for Sociability, F_KO / Sociability, N_KO: individual animal values
Protocol: as §1, §4
(§5) All experiments were conducted with the experimenter blind to genotype and drug treatment. Separate investigators prepared and coded dosing solutions, allocated the mice to the study treatment groups, dosed the animals, and collected the Audiogenic Seizure data.
as §2
For sociability a three chamber partition test was utilized. The three-chamber paradigm test known as Crawley's sociability and preference for social novelty protocol has previously been successfully employed to study social affiliation and social memory in several inbred and mutant mouse lines. The main principle of the test was based on the free choice by a subject mouse to spend time in any of three box's compartments during two experimental sessions, including indirect contact with one or two mice with which it was unfamiliar (Kaidanovich-Beilin 2011).
(§6) The treatment of the mice with OX (Oxitriptan), SU (Sumatriptan), ER (Ergoloid mesylates, also referred to as ergoloid herein) were according to the matrix shown below in Table 1. […]

[5] = system: Fmr1 KO mice; assay: Stereotypy: self-grooming; format: in vivo; conditions: for Stereotypy: Mean 2 (mean of treated KO group): Table 8, KO-V mean 45.40, WT-V 31.60, doses as E19
Protocol: as §1, §4, §5, §2
For stereotypy, self-grooming was assessed. Self-grooming in animals is an innate behaviour that is involved in hygiene maintenance and other physiologically important processes, including thermoregulation, social communication and de-arousal. It is one of the most frequently observed behaviours in awake rodents and has a patterned, sequential organization with characteristic cephalocaudal progression (Kalueff 2016).
as §6

[6] = system: Fmr1 KO mice; assay: Anxiety: hyponeophagia test; format: in vivo
Protocol: as §1, §4, §5
Behavior testing was conducted at 2 weeks. […]
For anxiety a hyponeophagia test was conducted. […] The amounts ingested then gradually increase until the animal has determined whether the substance is safe and nutritious. […]

[7] = system: Fmr1 KO mice; assay: Memory and learning: Novel Object Recognition (NOR); format: in vivo; design: unit not given here; conditions: for NOR: Mean Diff., F_KO-V vs. F_ treated KO (Dunnett) / NOR: Mean 2 (mean of F_ treated KO group): F_ values; for NOR: Mean Diff., F_KO-V vs. F_ treated KO (Dunnett) / NOR: Mean Diff., F_KO-V vs. N_ treated KO (Dunnett): against F_KO-V; for NOR: Mean Diff., F_KO-V vs. F_ treated KO (Dunnett): Sumatriptan 20, Oxitriptan 40, Ergoloid 4, Ergoloid 2 + Oxitriptan 40 mg/kg; for Novel Object Recognition, F_KO / Novel Object Recognition, N_KO: individual animal values
Protocol: as §1, §4, §5, §2
For memory and learning, a novel object recognition (NOR) task was used to evaluate the rodents' ability to recognize a novel object in the environment. […] The task procedure consists of three phases: habituation, familiarization, and test phase (Antunes 2012).
as §6

[8] = system: Fmr1 KO mice; assay: Test of daily living (marble burying / nesting); format: in vivo; design: scale not given here; conditions: for Tests of daily living: individual animal values
Protocol: as §1, §4, §5, §2
For test of daily living, nesting was assessed as nest building is an innate behavior in rodents, even when raised in laboratory settings. Synthetic and/or natural materials (such as twine, tissue, cotton, paper, and hay) are provided as a gauge of their overall well-being and as an ancillary assessment to predict the possible decline in cognition. Typically, changes in nesting behaviors, such as failure to create a nest, indicate a change in health or welfare. In addition, nesting behavior is sensitive to many environmental and physiological challenges, as well as many genetic mutations underlying pathological disease states (Gaskill 2013).
as §3
The experimental procedures described above for Example 1 were used in the following tests, as well as the addition of two further behaviour tests as described below. An SSRI (selective serotonin re-uptake inhibitor) was co-dosed with the ergoloid mesylates and oxitriptan to assess the effect of the ergoloid mesylates and oxitriptan treatment on a subject already receiving SSRI treatment.

[9] = Table 12, N_ values, F_KO-V mean 81.60, doses as E34
[10] = Table 11, F_KO-V mean 6.600, doses as E28
[11] = Table 4, WT-V mean 4.800, KO-V 1.200, doses as E7
[12] = Table 10, KO-V mean 1.200, doses as E25
[13] = N_ values, against N_WT-V, Sumatriptan 20, Oxitriptan 40, Ergoloid 4, Ergoloid 2 + Sumatriptan 10, Ergoloid 2 + Oxitriptan 40 mg/kg
[14] = against KO-V, Sumatriptan 20, Oxitriptan 40, Ergoloid 4, Ergoloid 2 + Oxitriptan 40 mg/kg
[15] = against WT-V, Sumatriptan 20, Oxitriptan 40, Ergoloid 4, Ergoloid 2 + Sumatriptan 10, Ergoloid 2 + Oxitriptan 40 mg/kg

## N[C@@H](Cc1c[nH]c2ccc(O)cc12)C(=O)O [Oxitriptan, 2-amino-3-(5-hydroxy-1H-indol-3-yl)propanoic acid]
[1]
  Effect on FXS phenotypes in the behavioral experiments (Example 1): ameliorates the FXS phenotypes
[2]
  half life: 2 h
[3]; against WT-V, 14 days QD, Sumatriptan 20, 5-HTP 80, EM 4, Ergoloid 2 + Sumatriptan 10, Ergoloid 2 + Oxitriptan 40 mg/kg
  Open Field: Mean Diff., WT-V vs. treated KO (Dunnett): −512.4
[4]; F_ values
  Sociability: Mean Diff., F_KO-V vs. F_ treated KO (Dunnett): 29.51
[4]; F_KO-Oxitriptan (40 mg/kg)
  Sociability, F_KO: 51 (2×) and 54 and 52 (2×) and 50 (2×) and 53 (2×) and 55
[4]; N_ values, doses as E34
  Sociability: Mean Diff., F_KO-V vs. N_ treated KO (Dunnett): −17.20
[4]; N_KO-Oxitriptan (40 mg/kg)
  Sociability, N_KO: 98 (2×) and 97 (2×) and 100 (2×) and 99 (2×) and 96
[4]; [9]
  Sociability: Mean 2 (mean of N_ treated KO group): 98.80
[5]
  Stereotypy: Mean 2 (mean of treated KO group): 38.30
[6]; KO-Oxitriptan (40 mg/kg), individual animal values
  Hyponeophagia: 150 and 140 (2×)
[7]
  NOR: Mean Diff., F_KO-V vs. F_ treated KO (Dunnett): −0.03636
[7]; F_KO-Oxitriptan (40 mg/kg)
  Novel Object Recognition, F_KO: 6 (4×) and 5 (3×) and 9 (2×) and 8 (2×)
[7]; N_ values, doses as E28
  NOR: Mean Diff., F_KO-V vs. N_ treated KO (Dunnett): −4.218
[7]; N_KO-Oxitriptan (40 mg/kg)
  Novel Object Recognition, N_KO: 10 (4×) and 12 and 14 and 8 (2×) and 15 and 13 and 9
[7]; [10]
  NOR: Mean 2 (mean of F_ treated KO group): 6.636
[8]; KO-Oxitriptan (40 mg/kg)
  Tests of daily living: 5 (9×) and 4
[8]; [11]
  Test of daily living: Mean 2 (mean of treated KO group): 4.900
[8]; [12]
  Test of daily living: Mean 2 (mean of treated KO group): 4.900

## CNS(=O)(=O)Cc1ccc2[nH]cc(CCN(C)C)c2c1 [Sumatriptan]
[3]; against KO-V, Sumatriptan 20, Oxitriptan 80, Ergoloid 4, Ergoloid 2 + Oxitriptan 40 mg/kg
  Open Field: Mean Diff., KO-V vs. treated KO (Dunnett): 846.6
[4]; F_ values
  Sociability: Mean Diff., F_KO-V vs. F_ treated KO (Dunnett): 19.40
[4]; F_KO-Sumatriptan (20 mg/kg)
  Sociability, F_KO: 61 (2×) and 64 and 65 (2×) and 60 (3×) and 63 (2×)
[4]; N_ values, doses as E34
  Sociability: Mean Diff., F_KO-V vs. N_ treated KO (Dunnett): −16.60
[4]; [13]
  Sociability: Mean Diff., N_WT-V vs. N_ treated KO (Dunnett): 0.9000
[4]; N_KO-Sumatriptan (20 mg/kg)
  Sociability, N_KO: 99 and 97 (2×) and 103 and 98 and 90 and 102 and 100 and 95 and 101
[4]; Table 6, N_WT-V mean 99.10, N_KO-V 83.90, doses as E13
  Sociability: Mean 2 (mean of N_ treated KO group): 98.20
[4]; Table 12, F_ values, F_KO-V mean 81.60, doses as E34
  Sociability: Mean 2 (mean of F_ treated KO group): 62.20
[4]; [9]
  Sociability: Mean 2 (mean of N_ treated KO group): 98.20
[5]
  Stereotypy: Mean 2 (mean of treated KO group): 30.90
[5]; [14]
  Stereotypy: Mean Diff., KO-V vs. treated KO (Dunnett): 14.50
[6]; [15]
  Hyponeophagia: Mean Diff., WT-V vs. treated KO (Dunnett): −9.200
[7]
  NOR: Mean Diff., F_KO-V vs. F_ treated KO (Dunnett): −0.2000
[7]; F_KO-Sumatriptan (20 mg/kg)
  Novel Object Recognition, F_KO: 9 (2×) and 5 (2×) and 8 (2×) and 7 (2×) and 4 and 6
[7]; N_ values, doses as E28
  NOR: Mean Diff., F_KO-V vs. N_ treated KO (Dunnett): −0.7000
[7]; [13]
  NOR: Mean Diff., N_WT-V vs. N_ treated KO (Dunnett): 6.600
[7]; N_KO-Sumatriptan (20 mg/kg)
  Novel Object Recognition, N_KO: 6 (3×) and 8 (2×) and 9 (3×) and 5 and 7
[7]; Table 5, N_WT-V mean 13.90, N_KO-V 6.700, doses as E10
  NOR: Mean 2 (mean of N_ treated KO group): 7.300
[7]; [10]
  NOR: Mean 2 (mean of F_ treated KO group): 6.800
[7]; Table 11, N_ values, F_KO-V mean 6.600, doses as E28
  NOR: Mean 2 (mean of N_ treated KO group): 7.300
[8]; KO-Sumatriptan (20 mg/kg)
  Tests of daily living: 5 (7×) and 4 (3×)
[8]; [11]
  Test of daily living: Mean 2 (mean of treated KO group): 4.700
[8]; [12]
  Test of daily living: Mean 2 (mean of treated KO group): 4.700
[8]; [14]
  Test of daily living: Mean Diff., KO-V vs. treated KO (Dunnett): −3.500
[8]; [15]
  Test of daily living: Mean Diff., WT-V vs. treated KO (Dunnett): 0.1000
